According to patent publication US20180284095A1, “BIOMARKERS ASSOCIATED WITH LSD1 INHIBITORS AND USES THEREOF” (Oryzon Genomics, S.A., priority 2015, published 2018):

Legend:
TUBB3 = experiment: Microarray gene expression in brain, spleen and liver of Hsd:Athymic Nude-Foxn1nu mice (Example 7), housekeeping gene; format: in vivo, mouse
Procedure: (§1) Total RNA was extracted from samples using the RNeasy extraction kit (Qiagen). The quality and concentration of the RNA was analyzed using the Agilent 2100 bioanalyzer and NanoDrop™ ND-1000 (Thermo Scientific). Samples with RNA integrity number (RIN)<6.0 were discarded. Total RNA (0.5 μg) amplification and labelling with Cy3 or Cy5 was carried out using the Eberwein mRNA amplification procedure (Van Gelder et al, Proc Natl Acad Sci USA 1990, 87:1663-1667) employing the MessageAmp™ aRNA amplification kit from Ambion (Applied Biosystems) following the manufacturer's instructions with minor modifications. As hybridization controls, plant mRNAs were transcribed from a plasmid containing the Zea mays Xet (xyloglucan endo-transglycosylase) cDNA and from a plasmid containing the Zea mays Zmmyb42 cDNA, independently prepared Cy3 and Cy5 labelled aRNA from these two RNAs using the Eberwein mRNA amplification procedure (as disclosed in Cerdà et al, Gen Comp Endocrinol 2008, 156:470-481).
(§2) The Cy3- and Cy5-labelled cRNAs and spikes were combined and hybridized to the microarray described in Example 2.6 for 17 h at 60° C. using Agilent's gaskets G2534-60002, G2534A hybridization chambers and DNA Hybridization Oven G2545A, according to the manufacturer's instructions. More specifically, equal amounts of Cy3 and Cy5 labeled Xet aRNA as well as equal amounts of Cy3 and Cy5 labeled Zmmyb42 aRNA were spiked into each mixture hybridized to the array. Arrays were washed and raw data were obtained using Agilent's DNA Microarray Scanner G2505B and Feature Extraction software (v10.1). The raw fluorescence intensity data were processed using applicant's proprietary software, and consists in the following operations:
(§3) Data normalization was carried out by an improved version of the nonlinear Q-splines normalization method (Workman et al., Genome Biol 2002, 3(9):research0048.1-0048.16). Normalization results were presented graphically as MA plots, as first described by Dudoit et al (Dudoit et al, Statistica Sinica, 2002, 12:111-139). Each point corresponds to a probe of the DNA array. M values (vertical axis) are the log-differential expression ratios. A values (horizontal axis) are the log-intensities of the spots. M and A are calculated from the Cy5 and Cy3 intensity values as of each spot. The DNA Array data is normalized using an improved version of non-linear Q-Splines normalization described by Workman et al., Genome Biol 2002, 3(9):research0048.1-0048.16. This process is useful to correct the deviation of the M values from the statistical assumption that most of the spots have M=0 in MA plots. The method allows the adjustment of all M values to form a cloud centered at M=0 in all intensity ranges. The data used to calculate the normalization fitting curve is the totality of the raw measurement dataset, excluding the signals for the probes for the spiked-in plant RNA controls and negative controls. In order to be able to normalize properly the data among all the experiments, the probe-set must include an important group of genes that should have no change (M=0) in the experiment. The normalization function is then applied to all the data, including controls.
(§4) Normalized and log-transformed data were used to calculate log 2 (sample/control) and Fold Change (FC) values. No background subtraction was applied to the signal intensity values during data processing, permitting robust selection of differentially expressed genes with low expression levels at the cost of potential sub-estimation of change when intensity levels are close to the array background level.
(§5) Powered Compound 3, 4 or 5 was dissolved in a 20% solution of 2-hydroxypropyl-R-cyclodextrin in water at the appropriate concentrations, vortexed and placed in an ultrasonic bath for 5 minutes.
(§6) Hsd:Athymic Nude-Foxn1nu mice were maintained in air- and temperature-controlled cages with regular supply of water and food. A maximum of 6 mice/cage were raised. […]

TUBB2C = experiment: as above; format: in vivo, mouse
Procedure: as §1, §2, §3, §4, §5, §6

## N[C@H]1CCN(CCN[C@H]2C[C@@H]2c2ccc(-c3cccc(C(F)(F)F)c3)cc2)C1 (racemic) [Compound 5, (S)-1-(2-(((trans)-2-(3′-(trifluoromethyl)-[1,1′-biphenyl]-4-yl)cyclopropyl)amino)ethyl)pyrrolidin-3-amine]
TUBB3; BRAIN, TUBB3, 3.3 mg/kg
  Hybridization signal sample_Cy5: 4740.83
TUBB3; BRAIN, TUBB3, 3.3 mg/kg vs VEH
  log2 (sample/control): −0.05126
TUBB3; BRAIN, TUBB3, 11 mg/kg
  Hybridization signal sample_Cy5: 6217.25
TUBB3; BRAIN, TUBB3, 11 mg/kg vs VEH
  log2 (sample/control): −0.02834
TUBB3; BRAIN, TUBB3, 33 mg/kg
  Hybridization signal sample_Cy5: 5722.06
TUBB3; BRAIN, TUBB3, 33 mg/kg vs VEH
  log2 (sample/control): 0.1073
TUBB3; LIVER, TUBB3, 3.3 mg/kg
  Hybridization signal sample_Cy5: 49.0459
TUBB3; LIVER, TUBB3, 3.3 mg/kg vs VEH
  log2 (sample/control): −0.4483
TUBB3; LIVER, TUBB3, 11 mg/kg
  Hybridization signal sample_Cy5: 43.197
TUBB3; LIVER, TUBB3, 11 mg/kg vs VEH
  log2 (sample/control): −0.6411
TUBB3; LIVER, TUBB3, 33 mg/kg
  Hybridization signal sample_Cy5: 52.03
TUBB3; LIVER, TUBB3, 33 mg/kg vs VEH
  log2 (sample/control): −0.4211
TUBB3; SPLEEN, TUBB3, 3.3 mg/kg
  Hybridization signal sample_Cy5: 88.3418
TUBB3; SPLEEN, TUBB3, 3.3 mg/kg vs VEH
  log2 (sample/control): 0.169
TUBB3; SPLEEN, TUBB3, 11 mg/kg
  Hybridization signal sample_Cy5: 229.738
TUBB3; SPLEEN, TUBB3, 11 mg/kg vs VEH
  log2 (sample/control): 1.521
TUBB3; SPLEEN, TUBB3, 33 mg/kg
  Hybridization signal sample_Cy5: 167.826
TUBB3; SPLEEN, TUBB3, 33 mg/kg vs VEH
  log2 (sample/control): 1.398
TUBB2C; BRAIN, 3.3 mg/kg
  Hybridization signal sample_Cy5: 10642
TUBB2C; BRAIN, 3.3 mg/kg vs VEH
  log2 (sample/control): −0.01396
TUBB2C; BRAIN, 11 mg/kg
  Hybridization signal sample_Cy5: 11161.1
TUBB2C; BRAIN, 11 mg/kg vs VEH
  log2 (sample/control): −0.06127
TUBB2C; BRAIN, 33 mg/kg
  Hybridization signal sample_Cy5: 12584.1
TUBB2C; BRAIN, 33 mg/kg vs VEH
  log2 (sample/control): −0.05145
TUBB2C; LIVER, 3.3 mg/kg
  Hybridization signal sample_Cy5: 3670.67
TUBB2C; LIVER, 3.3 mg/kg vs VEH
  log2 (sample/control): 0.3692
TUBB2C; LIVER, 11 mg/kg
  Hybridization signal sample_Cy5: 3985.13
TUBB2C; LIVER, 11 mg/kg vs VEH
  log2 (sample/control): 0.457
TUBB2C; LIVER, 33 mg/kg
  Hybridization signal sample_Cy5: 4335.41
TUBB2C; LIVER, 33 mg/kg vs VEH
  log2 (sample/control): 0.3205
TUBB2C; SPLEEN, 3.3 mg/kg
  Hybridization signal sample_Cy5: 8986.8
TUBB2C; SPLEEN, 3.3 mg/kg vs VEH
  log2 (sample/control): −0.9476
TUBB2C; SPLEEN, 11 mg/kg
  Hybridization signal sample_Cy5: 9222.71
TUBB2C; SPLEEN, 11 mg/kg vs VEH
  log2 (sample/control): −0.8739
TUBB2C; SPLEEN, 33 mg/kg
  Hybridization signal sample_Cy5: 6535.64
TUBB2C; SPLEEN, 33 mg/kg vs VEH
  log2 (sample/control): −1.41
